From ChEMBL document CHEMBL1145395, “De novo design of selective antibiotic peptides by incorporation of unnatural amino acids” (J Med Chem, 2007)
In brackets after ≈: the same amount, converted by molar mass. Activity calls are given as the source filed them. The rule behind the calls is not given here. Starred links: 1 amine or outer side, 2 acyl side, 3 side chain; linkers in the order of their positions; H or OH if unused. Non-standard residues stand in square brackets, D forms with d. Residues, ends and D or L forms follow the SMILES beside them. ξ: configuration not given here. *: point of attachment. Pro(3ξ,4ξ-(CH2)4) = O=C(O)[C@H]1NCC2CCCCC21; Oic = O=C(O)[C@@H]1C[C@@H]2CCCC[C@@H]2N1; Ethylenediamine = C(CN[*:2])N[*:1]; Tic = O=C(O)[C@@H]1Cc2ccccc2CN1; NH(CH2)3NH2 = NCCCN*

Columns and labels:
[1] = system: Salmonella typhimurium; test: Antibacterial activity against Salmonella Typhimurium ATCC 13311; type: functional, Salmonella enterica subsp. enterica serovar Typhimurium; conditions: for MIC: Salmonella enterica; for Activity: Salmonella enterica subsp. enterica serovar Typhimurium
[2] = system: Mycobacterium; test: Antibacterial activity against Mycobacterium ranae ATCC 110; type: functional
[3] = system: Bacillus subtilis; test: Antibacterial activity against Bacillus subtilis ATCC 43223; type: functional
[4] = system: Staphylococcus aureus; test: Antibacterial activity against methicillin/gentamicin/tetracycline resistant Staphylococcus aureus ATCC 33592; type: functional
[5] = Toxicity to mouse RBC assessed as hemolytic activity at 100 uM; type: cell-based, Erythrocyte; conditions: red blood cells, read-out: Activity

Structure (SMILES): CC(=O)NCC(=O)N[C@@H](Cc1ccccc1)C(=O)N[C@@H](Cc1ccccc1)C(=O)N1CC2CCCCC2[C@H]1C(=O)NCC(=O)N[C@@H](CCCCN)C(=O)N[C@@H](Cc1ccccc1)C(=O)N1CC2CCCCC2[C@H]1C(=O)NCC(=O)N[C@@H](Cc1ccccc1)C(=O)N[C@@H](Cc1ccccc1)C(=O)N1CC2CCCCC2[C@H]1C(=O)NCC(=O)N[C@@H](CCCCN)C(=O)N[C@@H](Cc1ccccc1)C(=O)N[C@@H](CCCCN)C(=O)N[C@@H](CCCCN)C(=O)N[C@@H](CCCCN)C(=O)N[C@@H](CCCCN)C(N)=O (stereo partly drawn) (Ac-GFF[Pro(3ξ,4ξ-(CH2)4)]GKF[Pro(3ξ,4ξ-(CH2)4)]GFF[Pro(3ξ,4ξ-(CH2)4)]GKFKKKK-NH2)
- MIC [1]: 10 µM (≈ 23.9 µg/mL)
- MIC [2]: 10 µM (≈ 23.9 µg/mL)
- MIC [3]: 3 µM (≈ 7.18 µg/mL)
- MIC [4]: 10 µM (≈ 23.9 µg/mL)

Structure (SMILES): CC(=O)NCC(=O)N[C@@H](Cc1ccccc1)C(=O)NCC(=O)N1CC2CCCCC2[C@H]1C(=O)NCC(=O)N[C@@H](CCCCN)C(=O)NCC(=O)N1CC2CCCCC2[C@H]1C(=O)NCC(=O)N[C@@H](Cc1ccccc1)C(=O)NCC(=O)N1CC2CCCCC2[C@H]1C(=O)NCC(=O)N[C@@H](CCCCN)C(=O)NCC(=O)N[C@@H](CCCCN)C(=O)N[C@@H](CCCCN)C(=O)N[C@@H](CCCCN)C(=O)N[C@@H](CCCCN)C(N)=O (stereo partly drawn) (Ac-GFG[Pro(3ξ,4ξ-(CH2)4)]GKG[Pro(3ξ,4ξ-(CH2)4)]GFG[Pro(3ξ,4ξ-(CH2)4)]GKGKKKK-NH2)
- MIC [2]: 100 µM (≈ 203 µg/mL)
- MIC [3]: 30 µM (≈ 61 µg/mL)
- MIC [4]: 3 µM (≈ 6.1 µg/mL)

Structure (SMILES): CC(=O)NCC(=O)N[C@@H](Cc1ccccc1)C(=O)N1CC2CCCCC2[C@H]1C(=O)NCC(=O)N[C@@H](CCCCN)C(=O)N1CC2CCCCC2[C@H]1C(=O)NCC(=O)N[C@@H](Cc1ccccc1)C(=O)N1CC2CCCCC2[C@H]1C(=O)NCC(=O)N[C@@H](CCCCN)C(=O)N[C@@H](CCCCN)C(=O)N[C@@H](CCCCN)C(=O)N[C@@H](CCCCN)C(=O)N[C@@H](CCCCN)C(N)=O (stereo partly drawn) (Ac-GF[Pro(3ξ,4ξ-(CH2)4)]GK[Pro(3ξ,4ξ-(CH2)4)]GF[Pro(3ξ,4ξ-(CH2)4)]GKKKKK-NH2)
- MIC [1]: 100 µM (≈ 180 µg/mL)
- MIC [2]: 100 µM (≈ 180 µg/mL)
- MIC [3]: 3 µM (≈ 5.41 µg/mL)

Structure (SMILES): CC(=O)NCC(=O)N[C@@H](Cc1ccccc1)C(=O)N1Cc2ccccc2C[C@H]1C(=O)N1[C@H](C(=O)NCC(=O)N[C@@H](CCCCN)C(=O)N2Cc3ccccc3C[C@H]2C(=O)N2[C@H](C(=O)NCC(=O)N[C@@H](Cc3ccccc3)C(=O)N3Cc4ccccc4C[C@H]3C(=O)N3[C@H](C(=O)NCC(=O)N[C@@H](CCCCN)C(=O)N4Cc5ccccc5C[C@H]4C(=O)N[C@@H](CCCCN)C(=O)N[C@@H](CCCCN)C(=O)N[C@@H](CCCCN)C(=O)N[C@@H](CCCCN)C(=O)NCCN)C[C@@H]4CCCC[C@@H]43)C[C@@H]3CCCC[C@@H]32)C[C@@H]2CCCC[C@@H]21 (Ac-GF[Tic][Oic]GK[Tic][Oic]GF[Tic][Oic]GK[Tic]KKKK-Ethylenediamine)
- MIC [1]: 10 µM (≈ 24.8 µg/mL)
- MIC [2]: 10 µM (≈ 24.8 µg/mL)
- MIC [3]: 1 µM (≈ 2.48 µg/mL)
- MIC [4]: 3 µM (≈ 7.45 µg/mL)

Structure (SMILES): CC(=O)NCC(=O)N[C@@H](Cc1ccccc1)C(=O)N1Cc2ccccc2C[C@H]1C(=O)N1[C@H](C(=O)NCC(=O)N[C@@H](CCCCN)C(=O)N2Cc3ccccc3C[C@H]2C(=O)N2[C@H](C(=O)NCC(=O)N[C@@H](Cc3ccccc3)C(=O)N3Cc4ccccc4C[C@H]3C(=O)N3[C@H](C(=O)NCC(=O)N[C@@H](CCCCN)C(=O)N4Cc5ccccc5C[C@H]4C(=O)N[C@@H](CCCCN)C(=O)N[C@@H](CCCCN)C(=O)N[C@@H](CCCCN)C(=O)N[C@@H](CCCCN)C(=O)NCCCN)C[C@@H]4CCCC[C@@H]43)C[C@@H]3CCCC[C@@H]32)C[C@@H]2CCCC[C@@H]21 (Ac-GF[Tic][Oic]GK[Tic][Oic]GF[Tic][Oic]GK[Tic]KKKK-{NH(CH2)3NH2})
- MIC [1]: 30 µM (≈ 74.9 µg/mL)
- MIC [2]: 10 µM (≈ 25 µg/mL)
- MIC [3]: 3 µM (≈ 7.49 µg/mL)
- MIC [4]: 10 µM (≈ 25 µg/mL)

Structure (SMILES): CSCC[C@H](NC(=O)[C@H](CC(C)C)NC(=O)[C@H](CCC(=O)O)NC(=O)[C@@H]1C2CCCCC2CN1C(=O)[C@@H]1Cc2ccccc2CN1C(=O)[C@H](CCCCN)NC(=O)CNC(=O)[C@H](CC(C)C)NC(=O)[C@H](CCCCN)NC(=O)CNC(=O)[C@@H]1C2CCCCC2CN1C(=O)[C@@H]1Cc2ccccc2CN1C(=O)[C@H](CO)NC(=O)[C@H](CC(N)=O)NC(=O)[C@H](CCSC)NC(=O)[C@H](CC(C)C)NC(=O)[C@@H](N)CCC(=O)O)C(=O)N[C@@H](CO)C(N)=O (stereo partly drawn) (H-ELMNS[Tic][Pro(3ξ,4ξ-(CH2)4)]GKLGK[Tic][Pro(3ξ,4ξ-(CH2)4)]ELMS-NH2)
- hemolysis at 100 µM [5]: 23%
- Activity [1]: inactive
- Activity [4]: inactive

Structure (SMILES): CSCC[C@H](NC(=O)[C@H](CC(C)C)NC(=O)[C@H](CCC(=O)O)NC(=O)[C@@H]1C2CCCCC2CN1C(=O)[C@@H]1Cc2ccccc2CN1C(=O)[C@H](CCCCN)NC(=O)CNC(=O)[C@@H]1C2CCCCC2CN1C(=O)[C@@H]1Cc2ccccc2CN1C(=O)[C@H](CC(C)C)NC(=O)CNC(=O)[C@@H]1C2CCCCC2CN1C(=O)[C@@H]1Cc2ccccc2CN1C(=O)[C@H](CCCCN)NC(=O)CNC(=O)[C@@H]1C2CCCCC2CN1C(=O)[C@@H]1Cc2ccccc2CN1C(=O)[C@H](CC(C)C)NC(=O)CNC(=O)[C@@H]1C2CCCCC2CN1C(=O)[C@@H]1Cc2ccccc2CN1C(=O)[C@H](CO)NC(=O)[C@H](CC(N)=O)NC(=O)[C@H](CCSC)NC(=O)[C@H](CC(C)C)NC(=O)[C@@H](N)CCC(=O)O)C(=O)N[C@@H](CC(N)=O)C(=O)N[C@@H](CO)C(N)=O (stereo partly drawn) (H-ELMNS[Tic][Pro(3ξ,4ξ-(CH2)4)]GL[Tic][Pro(3ξ,4ξ-(CH2)4)]GK[Tic][Pro(3ξ,4ξ-(CH2)4)]GL[Tic][Pro(3ξ,4ξ-(CH2)4)]GK[Tic][Pro(3ξ,4ξ-(CH2)4)]ELMNS-NH2)
- hemolysis at 100 µM [5]: 3%
- Activity [1]: inactive
- Activity [4]: inactive

Structure (SMILES): CC(C)C[C@H](NC(=O)CNC(=O)[C@H](CCCCN)NC(=O)CN)C(=O)N1Cc2ccccc2C[C@H]1C(=O)N1[C@H](C(=O)NCC(=O)N[C@@H](CCCNC(=N)N)C(=O)N2Cc3ccccc3C[C@H]2C(=O)N2[C@H](C(=O)NCC(=O)N[C@@H](Cc3ccccc3)C(=O)N3Cc4ccccc4C[C@H]3C(=O)N3[C@H](C(=O)NCC(=O)N[C@@H](CCCNC(=N)N)C(=O)N4Cc5ccccc5C[C@H]4C(=O)N4[C@H](C(=O)NCC(=O)N[C@@H](Cc5ccccc5)C(=O)N5Cc6ccccc6C[C@H]5C(=O)N5[C@H](C(=O)NCC(=O)N[C@@H](CCCNC(=N)N)C(=O)N6Cc7ccccc7C[C@H]6C(=O)N6[C@H](C(=O)NCC(=O)N[C@@H](CCCCN)C(=O)N[C@@H](CCCNC(=N)N)C(N)=O)C[C@@H]7CCCC[C@@H]76)C[C@@H]6CCCC[C@@H]65)C[C@@H]5CCCC[C@@H]54)C[C@@H]4CCCC[C@@H]43)C[C@@H]3CCCC[C@@H]32)C[C@@H]2CCCC[C@@H]21 (H-GKGL[Tic][Oic]GR[Tic][Oic]GF[Tic][Oic]GR[Tic][Oic]GF[Tic][Oic]GR[Tic][Oic]GKR-NH2)
- MIC [1]: 100 µM (≈ 362 µg/mL)
- MIC [3]: 1 µM (≈ 3.62 µg/mL)

Structure (SMILES): CC(C)C[C@H](NC(=O)CNC(=O)[C@H](CCCCN)NC(=O)CN)C(=O)N1Cc2ccccc2C[C@H]1C(=O)N1CC2CCCCC2[C@H]1C(=O)N[C@@H](Cc1ccccc1)C(=O)N[C@@H](CCCCN)C(=O)N1Cc2ccccc2C[C@H]1C(=O)N1CC2CCCCC2[C@H]1C(=O)N[C@@H](CCCCN)C(=O)N[C@@H](Cc1ccccc1)C(=O)N1Cc2ccccc2C[C@H]1C(=O)N1CC2CCCCC2[C@H]1C(=O)N[C@@H](Cc1ccccc1)C(=O)N[C@@H](CCCCN)C(=O)N1Cc2ccccc2C[C@H]1C(=O)N1CC2CCCCC2[C@H]1C(=O)N[C@@H](CCCCN)C(=O)N[C@@H](Cc1ccccc1)C(=O)N1Cc2ccccc2C[C@H]1C(=O)N1CC2CCCCC2[C@H]1C(=O)N[C@@H](Cc1ccccc1)C(=O)N[C@@H](CCCCN)C(=O)N1Cc2ccccc2C[C@H]1C(=O)N1CC2CCCCC2[C@H]1C(=O)N[C@@H](Cc1ccccc1)C(=O)N[C@@H](CCCCN)C(=O)N[C@@H](CCCNC(=N)N)C(N)=O (stereo partly drawn) (H-GKGL[Tic][Pro(3ξ,4ξ-(CH2)4)]FK[Tic][Pro(3ξ,4ξ-(CH2)4)]KF[Tic][Pro(3ξ,4ξ-(CH2)4)]FK[Tic][Pro(3ξ,4ξ-(CH2)4)]KF[Tic][Pro(3ξ,4ξ-(CH2)4)]FK[Tic][Pro(3ξ,4ξ-(CH2)4)]FKR-NH2)
- MIC [1]: 100 µM (≈ 404 µg/mL)
- MIC [3]: 3 µM (≈ 12.1 µg/mL)
- MIC [4]: 30 µM (≈ 121 µg/mL)

Structure (SMILES): CC(C)C[C@H](NC(=O)CNC(=O)[C@H](CCCCN)NC(=O)CN)C(=O)N1Cc2ccccc2C[C@H]1C(=O)N1CC2CCCCC2[C@H]1C(=O)NCC(=O)N[C@@H](CCCCN)C(=O)N1Cc2ccccc2C[C@H]1C(=O)N1CC2CCCCC2[C@H]1C(=O)NCC(=O)N[C@@H](CC(C)C)C(=O)N1Cc2ccccc2C[C@H]1C(=O)N1CC2CCCCC2[C@H]1C(=O)NCC(=O)N[C@@H](CCCCN)C(=O)N1Cc2ccccc2C[C@H]1C(=O)N1CC2CCCCC2[C@H]1C(=O)NCC(=O)N[C@@H](CC(C)C)C(=O)N1Cc2ccccc2C[C@H]1C(=O)N1CC2CCCCC2[C@H]1C(=O)NCC(=O)N[C@@H](CCCCN)C(=O)N1Cc2ccccc2C[C@H]1C(=O)N1CC2CCCCC2[C@H]1C(=O)NCC(=O)N[C@@H](CCCCN)C(=O)N[C@@H](CCCNC(=N)N)C(N)=O (stereo partly drawn) (H-GKGL[Tic][Pro(3ξ,4ξ-(CH2)4)]GK[Tic][Pro(3ξ,4ξ-(CH2)4)]GL[Tic][Pro(3ξ,4ξ-(CH2)4)]GK[Tic][Pro(3ξ,4ξ-(CH2)4)]GL[Tic][Pro(3ξ,4ξ-(CH2)4)]GK[Tic][Pro(3ξ,4ξ-(CH2)4)]GKR-NH2)
- hemolysis at 100 µM [5]: 100%

Structure (SMILES): CC(C)C[C@H](NC(=O)CNC(=O)[C@H](CCCCN)NC(=O)CN)C(=O)N1Cc2ccccc2C[C@H]1C(=O)N1CC2CCCCC2[C@H]1C(=O)NCC(=O)N[C@@H](CC(C)C)C(=O)N1Cc2ccccc2C[C@H]1C(=O)N1CC2CCCCC2[C@H]1C(=O)NCC(=O)N[C@@H](CCCCN)C(=O)N1Cc2ccccc2C[C@H]1C(=O)N1CC2CCCCC2[C@H]1C(=O)NCC(=O)N[C@@H](CC(C)C)C(=O)N1Cc2ccccc2C[C@H]1C(=O)N1CC2CCCCC2[C@H]1C(=O)NCC(=O)N[C@@H](CCCCN)C(=O)N1Cc2ccccc2C[C@H]1C(=O)N1CC2CCCCC2[C@H]1C(=O)NCC(=O)N[C@@H](CC(C)C)C(=O)N1Cc2ccccc2C[C@H]1C(=O)N1CC2CCCCC2[C@H]1C(=O)NCC(=O)N[C@@H](CCCCN)C(=O)N[C@@H](CCCNC(=N)N)C(N)=O (stereo partly drawn) (H-GKGL[Tic][Pro(3ξ,4ξ-(CH2)4)]GL[Tic][Pro(3ξ,4ξ-(CH2)4)]GK[Tic][Pro(3ξ,4ξ-(CH2)4)]GL[Tic][Pro(3ξ,4ξ-(CH2)4)]GK[Tic][Pro(3ξ,4ξ-(CH2)4)]GL[Tic][Pro(3ξ,4ξ-(CH2)4)]GKR-NH2)
- hemolysis at 100 µM [5]: 100%
- Activity [1]: inactive
- MIC [4]: 100 µM (≈ 346 µg/mL)
